Test results reported in ChEMBL document CHEMBL1201862, “PubChem BioAssay data set” (2004).
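A five-concentration, 48-hour dose response in 96-well plates underlies each endpoint, interpolated linearly between surrounding concentrations. GI50 = concentration required for 50% inhibition of growth.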 Active and inactive are the calls of the source. Rule as the data show it: active = GI50 up to about 1.1 µM and inactive = higher.

Assays:
Assay in all cases: growth of human tumour cells (NCI), 48 h
HOP-18 = tested on: HOP-18
XF498 = tested on: XF498
M19-MEL = tested on: M19-MEL
DMS-114 = tested on: DMS-114
SNB-78 = tested on: SNB-78
KM-20L2 = tested on: KM-20L2
RXF 631 = tested on: RXF 631
DMS-273 = tested on: DMS-273
DLD-1 = tested on: DLD-1

O=C1O[C@@H](c2ccc3c(c2)OCO3)C2C(=O)O[C@@H](c3ccc4c(c3)OCO4)C12 (stereo not given in full)
GI50 (HOP-18): > 100 µM (inactive) | GI50 (XF498): 25.8 µM (inactive) | GI50 (M19-MEL): > 100 µM (inactive) | GI50 (DMS-114): > 100 µM (inactive) | GI50 (SNB-78): > 100 µM (inactive) | GI50 (KM-20L2): > 100 µM (inactive) | GI50 (RXF 631): > 100 µM (inactive) | GI50 (DMS-273): > 100 µM (inactive)

Nc1nccc2c1ncn2C1C=C(CO)C(O)C1O (stereo not given)
GI50 (DLD-1): 63.4 µM (inactive) | GI50 (HOP-18): > 96.6 µM (inactive) | GI50 (XF498): > 46 µM (inactive) | GI50 (M19-MEL): 62.5 µM (inactive) | GI50 (DMS-114): 13.9 µM (inactive) | GI50 (SNB-78): > 100 µM (inactive) | GI50 (KM-20L2): > 87.1 µM (inactive) | GI50 (RXF 631): 83.6 µM (inactive) | GI50 (DMS-273): 25.6 µM (inactive)

COc1cc([C@@H]2c3cc4c(c(O)c3C[C@H]3COC(=O)[C@@H]32)OCO4)cc(OC)c1O
GI50 (HOP-18): < 0.02 µM (active) | GI50 (M19-MEL): 0.237 µM (active) | GI50 (DMS-114): < 0.02 µM (active) | GI50 (SNB-78): < 0.02 µM (active) | GI50 (DMS-273): < 0.02 µM (active)

COC(=O)C(CCC1(C)OCCO1)=[N+]=[N-]
GI50 (DLD-1): > 100 µM (inactive) | GI50 (HOP-18): > 100 µM (inactive) | GI50 (XF498): > 100 µM (inactive) | GI50 (DMS-114): > 100 µM (inactive) | GI50 (SNB-78): > 100 µM (inactive) | GI50 (KM-20L2): > 100 µM (inactive) | GI50 (RXF 631): > 100 µM (inactive) | GI50 (DMS-273): > 100 µM (inactive)

CN(N=O)C(=O)NC(CCCCNC(=O)OCc1ccccc1)C(=O)OCc1ccccc1 (stereo not given)
GI50 (DLD-1): 33.8 µM (inactive) | GI50 (XF498): 13.2 µM (inactive) | GI50 (M19-MEL): 27.1 µM (inactive) | GI50 (DMS-114): 29 µM (inactive) | GI50 (SNB-78): 26.7 µM (inactive) | GI50 (KM-20L2): > 100 µM (inactive) | GI50 (RXF 631): 19.9 µM (inactive) | GI50 (DMS-273): 33.2 µM (inactive)

Cc1cccc(NC(=O)CSc2nnc(-c3ccc(/N=C\c4ccc(Cl)cc4)cc3)o2)c1
GI50 (HOP-18): > 100 µM (inactive) | GI50 (XF498): > 100 µM (inactive) | GI50 (M19-MEL): > 100 µM (inactive) | GI50 (DMS-114): > 100 µM (inactive) | GI50 (SNB-78): > 100 µM (inactive) | GI50 (KM-20L2): > 100 µM (inactive) | GI50 (DMS-273): > 100 µM (inactive)
